Measured values taken from patent US20090143456A1, “Polyamine Analogs as Modulators of Cell Migration and Cell Motility” (priority 2005, published 2009).

System: Human glioblastoma SNB19 cells
Assay: LIVE/DEAD reagent staining to assess compound toxicity at end of migration assay
Assay type: cell-based
Method: The 96 well slides were first coated with 0.1 μg/ml laminin, a motility stimulating substrate, in PBS for 1 hour at 37° C., rinsed three times in PBS, and then treated with 0.1% BSA in PBS for 1 hour at room temperature. Human glioblastoma SNB19 cells were plated at 3,000 cells per sedimentation channel and incubated overnight to allow cell sedimentation and attachment to the substrate. After removal of the manifold, the cells were treated with the compounds either at 0, 0.1 μM, 1 μM or […]. The experiment was done in duplicate with appropriate controls on each slide. After adding the compounds, the diameter of each cell population was initially measured using an inverted microscope and image analysis software (Scion Image Corp, Frederick, Md.). Cells were incubated an additional 72 hours in the presence (or not) of the pharmacological compounds. The diameter of each cell population was again assessed at 24 hours, 48 hours and 72 hours to calculate the overall migration rate. Migration results were reported as the specific radial movement (μm/day) of the cell population. […] At the end of the assay, cells were rinsed with PBS, then treated with LIVE/DEAD reagent staining (Molecular Probes, Eugene, Oreg.) to assess compound toxicity.
FIGS. 1-38 show data for the activity of compounds in the migration assay. […]

## c1ccc(C2(NCCCCNCC3CC3CNCCCCNC3(c4ccccc4)CC3)CC2)cc1 (centres unmarked) [SL-11255, 1,2-bis((1-phenylcyclopropylaminobutyl)aminomethyl)cyclopropane]
10 μM, at time of staining (end of 72 hour assay)
  cytotoxic effects (Live/Dead assay): severe cytotoxic effects
Lower concentrations (below 10 μM)
  toxicity (Live/Dead assay): not toxic
